These results are taken from patent US20260250277A1, “HYDRAZINO GROUP-CONTAINING COMPOUND” (CHIA TAI TIANQING PHARMACEUTICAL GROUP CO., LTD., priority 2022, published 2026).

The structures appear in SMILES notation. Like-named read-outs stand apart in the source and are kept apart here.

The target in series [1] is ATR/ATPIP (ATR-interacting protein) kinase (Homo sapiens, UniProt Q13535). The series is described as follows: Inhibitory activity against ATR kinase (p53 substrate, HTRF). It counts as biochemical. How it is done:
(§1) ATR/ATPIP (ATR-interacting protein) kinase solution (concentration: 50 ng/μL) was added to assay wells at 6 μL/well, and different compounds dissolved in DMSO were added to the assay wells separately using a nanoliter pipettor, such that the final concentrations of the compounds were 10000 nM to 2.44 nM. In this experiment, the wells were set in duplicate, and a control well was set. After incubation of the above system for 30 min at room temperature, ATP (5 μM) was mixed with p53 substrate (50 nM) at a ratio of 1:1, and the mixture was added at 4 μL/well. The resulting mixture was left to react at room temperature for 2 h, and then 5 μL of EDTA was added to terminate the reaction, followed by addition of 5 μL of detection antibodies, Mab Anti-phospho p53 and Mab Anti GST-d2 (manufacturer: perkinelmer). The mixture was incubated at room temperature for 1 h. The plate was read using a PerkinElmer Envision multifunctional microplate reader (excitation: 320 nm, emission: 620 nm/665 nm), and IC50 was calculated by four-parameter fitting.
In general terms: TR-FRET usually uses a lanthanide donor and a delayed reading to cut background.

The next series addresses ATM kinase (Homo sapiens, UniProt Q13315). The series is described as follows: Inhibitory activity against ATM kinase (p53 substrate, HTRF). It counts as biochemical. Here is the method: as §1, with “ATM kinase” for “ATR/ATPIP (ATR-interacting protein) kinase”, “(concentration: 25” for “(concentration: 50”, “ATP (100” for “ATP (5”
The target in series [2] is DNA-PK (DNA-dependent protein kinase) (Homo sapiens, UniProt P78527). The series is described as follows: Inhibitory activity against DNA-PK (p53 substrate, HTRF). It counts as biochemical. How it is done:
as §1, with “DNA-PK kinase” for “ATR/ATPIP (ATR-interacting protein) kinase”, “(concentration: 0.15” for “(concentration: 50”, “ATP (100” for “ATP (5”

In series [3] the test system is CHK2 phosphorylation of NCI-H2228 cells. The series is described as follows: Inhibitory activity against CHK2 phosphorylation of NCI-H2228 cells (p-CHK2 Thr68 AlphaLISA). It counts as cell-based. The note with it: Homo sapiens. How it is done: NCI-H2228 cells in a good growth state were collected, added to a centrifuge tube, adjusted to a cell density of 1.25×10^6 cells/mL, and seeded in a 384-well plate (8 μL/well). The cells were equilibrated in a cell incubator for 1.5 h, and then compounds were added using a nanoliter pipettor, such that the final concentrations of the compounds were 200 nM to 0.049 nM. In this experiment, the wells were set in duplicate, and a control well was set. After the mixture was further cultured for 1 h in the cell incubator, an assay was performed using a p-CHK2 (Thr68) assay kit (manufacturer: perkinelmer) and the Envision microplate reader AlphaLISA program. A four-parameter analysis was performed, a dose-response curve was fit, and IC50 was calculated.
In general terms: In Alpha technology, singlet oxygen from a donor bead excites a nearby acceptor bead.

Series [4] in a line: In vivo pharmacokinetics (Table 4). The settings on record: for AUC(0-inf) / AUC(0-t) / half-life / MRT last / Vd / Cmax / Tmax: plasma; for MRT last: read-out: MRT(0-t); for Vd: read-out: Vz.

ATM kinase, sequence (Q13315 whole entry): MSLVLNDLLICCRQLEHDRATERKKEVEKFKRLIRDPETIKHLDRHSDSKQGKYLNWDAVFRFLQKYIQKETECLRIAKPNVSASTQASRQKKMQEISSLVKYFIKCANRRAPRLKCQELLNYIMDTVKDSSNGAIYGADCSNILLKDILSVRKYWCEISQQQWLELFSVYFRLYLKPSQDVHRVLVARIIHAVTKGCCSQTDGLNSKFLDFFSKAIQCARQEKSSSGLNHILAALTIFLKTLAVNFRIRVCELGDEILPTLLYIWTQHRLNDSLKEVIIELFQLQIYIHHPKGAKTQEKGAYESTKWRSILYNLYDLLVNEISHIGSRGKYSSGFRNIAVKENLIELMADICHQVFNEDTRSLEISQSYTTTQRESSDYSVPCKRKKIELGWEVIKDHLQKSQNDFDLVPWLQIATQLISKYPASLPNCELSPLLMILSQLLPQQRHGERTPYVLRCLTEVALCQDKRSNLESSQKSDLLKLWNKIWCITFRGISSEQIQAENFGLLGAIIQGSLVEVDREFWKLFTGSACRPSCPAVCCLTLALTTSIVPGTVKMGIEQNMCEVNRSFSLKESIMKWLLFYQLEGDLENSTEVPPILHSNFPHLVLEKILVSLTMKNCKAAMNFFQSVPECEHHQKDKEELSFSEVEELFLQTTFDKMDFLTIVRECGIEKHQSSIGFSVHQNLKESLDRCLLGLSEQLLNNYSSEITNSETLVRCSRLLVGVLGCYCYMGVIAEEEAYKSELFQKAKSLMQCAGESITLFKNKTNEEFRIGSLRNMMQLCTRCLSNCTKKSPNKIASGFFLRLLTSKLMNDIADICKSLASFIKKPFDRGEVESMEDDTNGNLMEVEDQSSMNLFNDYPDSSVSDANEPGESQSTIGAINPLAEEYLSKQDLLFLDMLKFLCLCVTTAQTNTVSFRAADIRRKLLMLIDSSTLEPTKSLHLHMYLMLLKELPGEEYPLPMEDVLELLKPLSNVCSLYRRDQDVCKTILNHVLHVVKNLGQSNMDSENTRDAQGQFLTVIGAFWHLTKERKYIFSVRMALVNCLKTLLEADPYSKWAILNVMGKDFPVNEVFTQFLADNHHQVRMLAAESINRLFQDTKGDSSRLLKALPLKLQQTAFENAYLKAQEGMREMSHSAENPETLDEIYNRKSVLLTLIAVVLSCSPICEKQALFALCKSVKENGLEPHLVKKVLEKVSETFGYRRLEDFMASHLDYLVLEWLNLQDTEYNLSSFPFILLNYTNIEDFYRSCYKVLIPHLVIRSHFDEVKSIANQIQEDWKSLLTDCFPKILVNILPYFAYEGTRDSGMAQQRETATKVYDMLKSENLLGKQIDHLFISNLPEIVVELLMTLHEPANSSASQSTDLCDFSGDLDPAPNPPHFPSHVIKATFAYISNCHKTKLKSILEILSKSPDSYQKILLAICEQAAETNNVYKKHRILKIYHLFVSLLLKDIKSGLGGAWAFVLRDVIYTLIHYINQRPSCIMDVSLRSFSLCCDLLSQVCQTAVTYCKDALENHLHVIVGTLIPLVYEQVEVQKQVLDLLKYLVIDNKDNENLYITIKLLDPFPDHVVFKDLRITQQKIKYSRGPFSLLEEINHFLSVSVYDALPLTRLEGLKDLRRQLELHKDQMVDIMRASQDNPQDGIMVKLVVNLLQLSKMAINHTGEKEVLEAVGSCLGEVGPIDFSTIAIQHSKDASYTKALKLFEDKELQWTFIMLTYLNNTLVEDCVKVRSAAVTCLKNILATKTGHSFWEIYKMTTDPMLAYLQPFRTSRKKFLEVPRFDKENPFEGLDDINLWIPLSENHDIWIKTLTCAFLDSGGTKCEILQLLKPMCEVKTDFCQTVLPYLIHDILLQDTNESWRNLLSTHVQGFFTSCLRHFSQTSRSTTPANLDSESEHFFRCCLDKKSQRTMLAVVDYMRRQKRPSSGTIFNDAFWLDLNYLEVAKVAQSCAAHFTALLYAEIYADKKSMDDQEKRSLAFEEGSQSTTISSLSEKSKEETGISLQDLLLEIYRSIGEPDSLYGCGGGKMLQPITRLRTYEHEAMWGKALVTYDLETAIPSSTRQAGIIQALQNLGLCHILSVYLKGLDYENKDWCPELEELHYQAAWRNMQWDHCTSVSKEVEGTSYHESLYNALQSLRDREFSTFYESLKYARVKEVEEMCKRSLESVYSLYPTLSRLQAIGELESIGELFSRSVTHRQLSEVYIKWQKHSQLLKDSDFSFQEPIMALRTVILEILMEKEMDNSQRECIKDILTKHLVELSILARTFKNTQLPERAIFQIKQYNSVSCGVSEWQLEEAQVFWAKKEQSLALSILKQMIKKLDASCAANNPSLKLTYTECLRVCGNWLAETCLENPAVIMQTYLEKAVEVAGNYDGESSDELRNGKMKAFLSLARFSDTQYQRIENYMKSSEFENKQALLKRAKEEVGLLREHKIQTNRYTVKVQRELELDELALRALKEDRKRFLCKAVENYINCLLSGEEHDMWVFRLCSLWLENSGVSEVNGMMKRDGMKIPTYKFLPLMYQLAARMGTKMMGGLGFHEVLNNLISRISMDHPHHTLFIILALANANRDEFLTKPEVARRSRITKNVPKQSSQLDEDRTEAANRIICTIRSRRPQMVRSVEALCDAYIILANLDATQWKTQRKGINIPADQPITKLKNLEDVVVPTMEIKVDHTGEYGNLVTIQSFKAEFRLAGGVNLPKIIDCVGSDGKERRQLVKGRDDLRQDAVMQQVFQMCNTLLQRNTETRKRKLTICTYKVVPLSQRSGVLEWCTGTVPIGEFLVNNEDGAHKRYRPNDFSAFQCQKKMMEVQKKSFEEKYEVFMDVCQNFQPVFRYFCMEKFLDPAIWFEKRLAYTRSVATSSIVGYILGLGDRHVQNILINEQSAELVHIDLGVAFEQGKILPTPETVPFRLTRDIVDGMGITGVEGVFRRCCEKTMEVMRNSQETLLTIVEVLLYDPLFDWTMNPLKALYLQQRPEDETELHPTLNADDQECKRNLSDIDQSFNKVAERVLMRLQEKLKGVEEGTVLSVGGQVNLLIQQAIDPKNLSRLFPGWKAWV

By IC50 is commonly meant the concentration at which inhibition is half-maximal. On to `CC(C)n1c(=O)n(N)c2cnc3ccc(-c4ccc(OCCCN5CCCCC5)nc4)cc3c21` [Example 1], for which the results for the IC50 (in series [1]; against ATM kinase; in series [2]) were 289 nM, below 50 nM and above 1000 nM, respectively.
With `CC(C)n1c(=O)n(N)c2cnc3cc(F)c(-c4ccc(OCCCN(C5CC5)C5CC5)nc4)cc3c21` [Example 4], the values for the 50% inhibitory concentration (IC50) (in series [1]; against ATM kinase; in series [2]) were above 1000 nM, below 50 nM and above 1000 nM, respectively.
`Nn1c(=O)n(C2CCOCC2)c2c3cc(-c4ccc(OCCCN5CCCC5)nc4)c(F)cc3ncc21` [Example 5]: the IC50 in series [1] is above 1000 nM; in series [3] it was below 50 nM; against ATM kinase, below 50 nM; in series [2] it was above 1000 nM.
As to `Nn1c(=O)n(C2CCOCC2)c2c3cc(-c4ccc(OCCCN(C5CC5)C5CC5)nc4)c(F)cc3ncc21` [Example 6], the IC50 in series [1] is above 1000 nM; against ATM kinase, below 50 nM; in series [2] it was above 1000 nM.
Take `CNn1c(=O)n(C(C)C)c2c3cc(-c4ccc(OCCCN5CCCCC5)nc4)c(F)cc3ncc21` [Example 7]: the IC50 is above 1000 nM in series [1], below 50 nM in series [3], below 50 nM against ATM kinase and above 1000 nM in series [2].
Regarding `[2H]C([2H])([2H])Nn1c(=O)n(C(C)C)c2c3cc(-c4ccc(OCCCN5CCCCC5)nc4)c(F)cc3ncc21` [Example 8], the IC50 in series [1] was above 1000 nM; against ATM kinase, below 50 nM; in series [2] it was above 1000 nM.
Regarding `COc1cc2ncc3c(c2cc1-c1ccc(OCCCN2CCCCC2)nc1)n(C1CC1)c(=O)n3N` [Example 10], the IC50 is above 1000 nM in series [1], below 50 nM against ATM kinase and above 1000 nM in series [2].
As for `COC1CCC(n2c(=O)n(N)c3cnc4cc(F)c(-c5ccc(OCCCN6CCCCC6)nc5)cc4c32)C1` (centres unmarked) [Example 12], the IC50 in series [1] was above 1000 nM; at ATM kinase it was below 50 nM; in series [2], above 1000 nM.
As for `Nn1c(=O)n(C2CCOCC2)c2c3cc(-c4ccc(OCCCN5CCCCC5)nc4)c(F)cc3ncc21` [Example 15], the IC50 in series [1] was above 1000 nM; against ATM kinase, below 50 nM; in series [2], above 1000 nM.
In the case of `COc1cc2ncc3c(c2cc1-c1ccc(OCCCN2CCCCC2)nc1)n(C(C)C)c(=O)n3N` [Example 16], the values for the IC50 (in series [1]; against ATM kinase; in series [2]) were above 1000 nM, below 50 nM and above 1000 nM, respectively.
Consider `CC(C)n1c(=O)n(N)c2cnc3cc(F)c(-c4ccc(OCC5CC(N6CCCC6)C5)nc4)cc3c21` (centres unmarked) [Example 22], for which the values for the IC50 (in series [3]; against ATM kinase; in series [2]) were below 50 nM, below 50 nM and above 1000 nM, respectively.
With `CC(C)n1c(=O)n(N)c2cnc3cc(F)c(-c4ccc(OCCCN5CC(F)C5)nc4)cc3c21` [Example 23], the values for the IC50 (in series [3]; against ATM kinase; in series [2]) were below 50 nM, below 50 nM and above 1000 nM, respectively.
For the compound `CC(C)n1c(=O)n(N)c2cnc3cc(F)c(-c4ccc(OCCCN5CC(F)(F)C5)nc4)cc3c21` [Example 24], the IC50 is below 50 nM in series [3], below 50 nM against ATM kinase and above 1000 nM in series [2].
Turning to `CC(C)n1c(=O)n(N)c2cnc3cc(F)c(-c4ccc(OCCCN5CCC(CF)C5)nc4)cc3c21` (centres unmarked) [Example 25], the IC50 in series [3] is below 50 nM; on ATM kinase it was below 50 nM; in series [2], above 1000 nM.
Regarding `CC(C)n1c(=O)n(N)c2cnc3cc(F)c(-c4ccc(OCCCN5CCC(F)(F)C5)nc4)cc3c21` [Example 26], the IC50 in series [3] was below 50 nM; against ATM kinase it was below 50 nM; in series [2] it was above 1000 nM.
The AUC(0-inf) is total exposure, with the tail of the curve extrapolated. One may read the AUC(0-t) as exposure summed from dosing to a finite time, without extrapolation to infinity. What is called half-life is the time needed for the level to fall by half in the phase considered. Read a high half-life as slow decline. The Cmax is the maximum level reached in the sampled fluid or tissue. By Tmax is commonly meant the time from dosing to the highest level. In the case of `CC(C)n1c(=O)n(N)c2cnc3cc(F)c(-c4ccc(OCCCN5C6CCC5CC6)nc4)cc3c21` [Example 27], the “Absolute F” value in series [4] (IG 10 mg/kg vs IV 1 mg/kg) turned out to be 115.39%. This compound returned a CLz in series [4] (IV, 1 mg/kg) of 59.7 mL/min/kg. In addition, in series [4] (iv, 1 mg/kg), the AUC(0-inf) came out at 280 ng·h/mL, the AUC(0-t) was found to be 271 ng·h/mL, the half-life was 1.87 h and the MRT last worked out at 1.43 h. In addition, the Vd in series [4] (iv, 1 mg/kg) was found to be 6.11 L/kg. Moreover, in series [4] (po, IG, 10 mg/kg), the AUC(0-inf) came out at 3190 ng·h/mL, the AUC(0-t) is 3130 ng·h/mL, the concentration peaked (Cmax) at 342 ng/mL and the Tmax stood at 2 h. In addition, in series [4] (po, IG, 10 mg/kg), the half-life was 4.12 h and the MRT last came out at 5.7 h. In series [3], this compound had an IC50 below 50 nM. At ATM kinase, this compound gave an IC50 below 50 nM. Moreover, the IC50 in series [2] is above 1000 nM.
For the compound `CC(C)n1c(=O)n(N)c2cnc3cc(F)c(-c4ccc(OCCCN5CC(CF)C5)nc4)cc3c21` [Example 28], in series [4] (iv, 1 mg/kg), the AUC(0-inf) is 2240 ng·h/mL, the AUC(0-t) was 2230 ng·h/mL, the half-life was 3.1 h and the MRT last worked out at 3.24 h. Also, in series [4] (iv, 1 mg/kg), the Vd came to 1.5 L/kg. In addition, in series [4] (po, IG, 10 mg/kg), the AUC(0-inf) was 17300 ng·h/mL, the AUC(0-t) was determined as 17200 ng·h/mL, the peak level (Cmax) was 1630 ng/mL and the Tmax amounted to 4 h. In series [4] (po, IG, 10 mg/kg), the half-life is 3.04 h and the MRT last came out at 5.56 h. Further, the IC50 in series [3] was below 50 nM. For the same compound, the IC50 on ATM kinase is below 50 nM. The same compound displayed an IC50 in series [2] above 1000 nM.
On to `CC(C)n1c(=O)n(N)c2cnc3cc(F)c(-c4ccc(OCCCN5CC6(CCC6)C5)nc4)cc3c21` [Example 29], for which, in series [4] (iv, 1 mg/kg), the AUC(0-inf) turned out to be 3160 ng·h/mL, the AUC(0-t) came to 3140 ng·h/mL, the half-life was 3.22 h and the MRT last came out at 3.29 h. The Vd in series [4] (iv, 1 mg/kg) turned out to be 1.09 L/kg. For the same compound, in series [4] (po, IG, 10 mg/kg), the AUC(0-inf) was 27300 ng·h/mL, the AUC(0-t) is 27000 ng·h/mL, the concentration peaked (Cmax) at 2300 ng/mL and the Tmax was 4 h. In series [4] (po, IG, 10 mg/kg), the half-life was 3.51 h and the MRT last is 5.99 h. This compound also had an IC50 in series [3] below 50 nM. The compound further yielded an IC50 on ATM kinase below 50 nM. The concentration for half-maximal inhibition (IC50) in series [2] is above 1000 nM.
Consider `COc1cc2ncc3c(c2cc1-c1ccc(OCCCN2CCCCC2)nc1)n(-c1c(F)cncc1OC)c(=O)n3N` [Example 30], for which the IC50 was 8090 nM in series [1], below 50 nM against ATM kinase and above 10000 nM in series [2].
Compound `CC(C)n1c(=O)n(N)c2nnc3cc(F)c(-c4ccc(OCCCN5CCCCC5)nc4)cc3c21` [Example 32] displayed an IC50 in series [3] below 50 nM.
As for `CNn1c(=O)n(C(C)C)c2c3cc(-c4ccc(OCCCN5CCCCC5)nc4)c(F)cc3nnc21` [Example 33], the IC50 is above 10000 nM in series [1], below 50 nM on ATM kinase and above 10000 nM in series [2].
Consider `CC(C)n1c(=O)n(N)c2nnc3cc(F)c(-c4ccc(OCCCN5CCCC5)nc4)cc3c21` [Example 34], for which the IC50 is above 10000 nM in series [1], below 50 nM on ATM kinase and above 10000 nM in series [2].
`CNn1c(=O)n(C(C)C)c2c3cc(-c4ccc(OCCCN5CCCC5)nc4)c(F)cc3nnc21` [Example 35]: the IC50 was above 10000 nM in series [1], below 50 nM on ATM kinase and above 10000 nM in series [2].
As for `Nn1c(=O)n(C2CC2)c2c3cc(-c4ccc(OCCCN5CCCCC5)nc4)c(F)cc3nnc21` [Example 36], the IC50 in series [1] is above 10000 nM; on ATM kinase, below 50 nM; in series [2], above 10000 nM.
As to `Nn1c(=O)n(C2CC2)c2c3cc(-c4ccc(OCCCN5CCCC5)nc4)c(F)cc3nnc21` [Example 37], the IC50 was above 10000 nM in series [1], below 50 nM against ATM kinase and above 10000 nM in series [2].
